Target: T1, Delta-type opioid receptor (Homo sapiens, UniProt P41143)
Conditions: CHO, filed as modulator, time 1.0 hrs

T1 sequence (P41143 whole entry): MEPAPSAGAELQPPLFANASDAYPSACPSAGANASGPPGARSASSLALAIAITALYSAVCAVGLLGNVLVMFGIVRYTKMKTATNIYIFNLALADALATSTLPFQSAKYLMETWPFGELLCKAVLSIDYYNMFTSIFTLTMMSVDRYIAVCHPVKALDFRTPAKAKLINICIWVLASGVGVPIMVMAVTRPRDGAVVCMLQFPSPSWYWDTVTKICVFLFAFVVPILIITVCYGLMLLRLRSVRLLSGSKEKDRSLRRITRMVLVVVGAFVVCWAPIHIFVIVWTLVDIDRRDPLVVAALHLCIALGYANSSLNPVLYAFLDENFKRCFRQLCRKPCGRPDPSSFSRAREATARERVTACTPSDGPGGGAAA

SMILES | pKb
Cc1ccccc1COc1ccc(C2C3=C(CC(C)(C)CC3=O)OC3=C2C(=O)CC(C)(C)C3)nc1 | 4.89
CCc1ccccc1COc1ccc(C2C3=C(CC(C)(C)CC3=O)OC3=C2C(=O)CC(C)(C)C3)cc1 | 5.5
C#Cc1ccccc1COc1ccc(C2C3=C(CC(C)(C)CC3=O)OC3=C2C(=O)CC(C)(C)C3)cc1 | 6.18
CC(C)c1ccccc1COc1ccc(C2C3=C(CC(C)(C)CC3=O)OC3=C2C(=O)CC(C)(C)C3)cc1 | 6.08
Cc1ccccc1COc1ccc(C2C3=C(CC(C)(C)CC3=O)OC3=C2C(=O)CC(C)(C)C3)cc1F | 6.01
CC1(C)CC(=O)C2=C(C1)OC1=C(C(=O)CC(C)(C)C1)C2c1ccc(OCc2ccccc2Br)cc1 | 5.9

Second part, the compound after the results:

pKb | SMILES
5.53 | CC1(C)CC(=O)C2=C(C1)OC1=C(C(=O)CC(C)(C)C1)C2c1ccc(OCc2ccccc2C2CC2)cc1
5.83 | CC1CC(=O)C2=C(C1)OC1=C(C(=O)CC(C)C1)C2c1ccc(OCC2CCCCC2)cc1 (configuration not stated)
5.72 | CC1(C)CC(=O)C2=C(C1)OC1=C(C(=O)CC(C)(C)C1)C2c1ccc(OCC2CCC2)cc1
5.57 | CC1(C)CC(=O)C2=C(C1)OC1=C(C(=O)CC(C)(C)C1)C2c1ccc(OCC2CCCC2)cc1

Target: T1, Delta-type opioid receptor
Experiment: Agonist activity at human DOR expressed in CHO cells assessed as […] in ERK1/2 phosphorylation level
Type: functional, cell-based
Conditions: not given

SMILES | EC50
CN1CC[C@@]2(c3cccc(O)c3)Cc3nc4ccccc4cc3C[C@@H]2C1 | 31.6 nM
C=CCN1C[C@H](C)N([C@H](c2ccc(C(=O)NCC)cc2)c2cccc(OC)c2)C[C@H]1C | 43.7 nM
